Among the data in patent US20240208937A1, “Compounds and Their Use for Treatment of Hemoglobinopathies” (Bristol-Myers Squibb Company, priority 2022, published 2024) are EC50, activation and DC50 values, retold here.

Common to all, as to format: cell-based
Assay [1] concerns the target WIZ (Widely interspaced zinc finger) (Homo sapiens (Human), UniProt O95785+Q96SW2). Briefly: HUDEP-2 WIZ HiBiT degradation assay. Particulars: HUDEP-2 WIZ HiBiT cells, 24 hours treatment, luminescence; for DC50: read-out: WIZ EC50. A digest of the protocol: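 HiBiT-tagged WIZ HUDEP-2 cells were seeded at 1.0×10^6 cells/ml in supplemented StemSpan SFEM II with doxycycline and treated 24 h at 37 °C. Remaining tagged protein was read by Nano-Glo HiBiT lytic luminescence. EC50 and Y-min were fitted after DMSO normalization across 10 concentrations, 10 to 0.0005 μM.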

For assay [2], the system named is fetal hemoglobin (HbF) in GCSF-mobilized human CD34+ cells. In words: HbF Induction Assay. Particulars: 168 h; compound 1 μM, 7 days, erythroid-differentiated human CD34+ cells, flow cytometry; DMSO baseline 15% HbF positive cells. The procedure, abridged:
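GCSF-mobilized human CD34+ cells were expanded for 7 days with SCF, Flt3-L, IL-3 and EPO, then differentiated with SCF and EPO while dosed at 1 μM (0.1% DMSO), with compound refreshed every 2 days for 7 days. Viability and % HbF-positive cells and MFI were measured by flow cytometry with anti-HbF staining, relative to DMSO controls.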
On the technique in general: Flow cytometry measures light scatter and fluorescence of single cells or particles in a stream.

Assay [3] has as its target ZBTB7A (Zinc Finger And BTB Domain Containing 7A) (Homo sapiens (Human), UniProt O95365+Q96SW2). In words: HUDEP-2 ZBTB7A HiBiT degradation assay. Particulars: HUDEP-2 ZBTB7A HiBiT cells, 24 hours treatment, luminescence; for DC50: read-out: ZBTB7A EC50. A digest of the protocol: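 HUDEP-2 cells carrying HiBiT-tagged ZBTB7A, grown 48 h in IMDM with EPO, SCF, insulin, transferrin, heparin, dox and 5% human plasma, then seeded at 1.0×10^6 cells/ml on pre-dispensed compound (10 concentrations, 10–0.0005 μM) for 24 h at 37 °C. Lytic HiBiT luminescence, DMSO-normalised, gave EC50 and Y-min.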
For orientation: With HiBiT, luminescence reflects the tagged protein that the partner subunit can reach.

A value given as a limit tells only on which side of the number the result lay.

A word on the EC50: it is the concentration giving half of the maximal effect. Lower therefore signals a more potent agent.

Chain of ZBTB7A (Zinc Finger And BTB Domain Containing 7A) (O95365 whole entry, the tested form may be a part): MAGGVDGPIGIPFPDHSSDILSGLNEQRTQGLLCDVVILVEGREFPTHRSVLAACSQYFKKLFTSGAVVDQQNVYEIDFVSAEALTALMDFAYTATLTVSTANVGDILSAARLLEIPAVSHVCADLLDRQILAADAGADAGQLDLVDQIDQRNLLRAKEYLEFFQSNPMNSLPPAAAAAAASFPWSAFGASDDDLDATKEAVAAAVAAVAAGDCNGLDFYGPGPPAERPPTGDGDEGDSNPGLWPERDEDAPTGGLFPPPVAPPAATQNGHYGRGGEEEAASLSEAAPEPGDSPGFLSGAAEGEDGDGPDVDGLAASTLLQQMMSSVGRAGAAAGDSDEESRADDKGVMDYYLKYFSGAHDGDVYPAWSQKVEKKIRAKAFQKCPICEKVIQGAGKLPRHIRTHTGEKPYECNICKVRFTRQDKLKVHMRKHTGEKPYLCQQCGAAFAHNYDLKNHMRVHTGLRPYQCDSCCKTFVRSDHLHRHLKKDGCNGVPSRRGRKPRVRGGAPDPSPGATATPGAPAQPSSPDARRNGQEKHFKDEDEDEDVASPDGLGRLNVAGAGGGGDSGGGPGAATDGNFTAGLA
Chain of ZBTB7A (Zinc Finger And BTB Domain Containing 7A) (Q96SW2 whole entry, the tested form may be a part): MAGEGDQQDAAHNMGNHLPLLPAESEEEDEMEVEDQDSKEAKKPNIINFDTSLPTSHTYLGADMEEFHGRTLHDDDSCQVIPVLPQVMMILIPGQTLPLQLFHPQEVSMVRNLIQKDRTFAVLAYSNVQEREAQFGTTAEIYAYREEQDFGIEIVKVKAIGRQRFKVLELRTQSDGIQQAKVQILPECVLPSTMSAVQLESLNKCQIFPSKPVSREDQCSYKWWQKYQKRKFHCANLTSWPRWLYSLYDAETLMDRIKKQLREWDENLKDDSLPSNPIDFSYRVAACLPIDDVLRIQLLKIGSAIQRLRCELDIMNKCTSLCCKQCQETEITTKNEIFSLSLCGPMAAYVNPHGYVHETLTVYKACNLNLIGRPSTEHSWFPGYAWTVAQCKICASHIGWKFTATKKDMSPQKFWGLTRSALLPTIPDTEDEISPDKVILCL
Chain of ZBTB7A (Zinc Finger And BTB Domain Containing 7A) (Q16531 whole entry partner, the tested form may be a part): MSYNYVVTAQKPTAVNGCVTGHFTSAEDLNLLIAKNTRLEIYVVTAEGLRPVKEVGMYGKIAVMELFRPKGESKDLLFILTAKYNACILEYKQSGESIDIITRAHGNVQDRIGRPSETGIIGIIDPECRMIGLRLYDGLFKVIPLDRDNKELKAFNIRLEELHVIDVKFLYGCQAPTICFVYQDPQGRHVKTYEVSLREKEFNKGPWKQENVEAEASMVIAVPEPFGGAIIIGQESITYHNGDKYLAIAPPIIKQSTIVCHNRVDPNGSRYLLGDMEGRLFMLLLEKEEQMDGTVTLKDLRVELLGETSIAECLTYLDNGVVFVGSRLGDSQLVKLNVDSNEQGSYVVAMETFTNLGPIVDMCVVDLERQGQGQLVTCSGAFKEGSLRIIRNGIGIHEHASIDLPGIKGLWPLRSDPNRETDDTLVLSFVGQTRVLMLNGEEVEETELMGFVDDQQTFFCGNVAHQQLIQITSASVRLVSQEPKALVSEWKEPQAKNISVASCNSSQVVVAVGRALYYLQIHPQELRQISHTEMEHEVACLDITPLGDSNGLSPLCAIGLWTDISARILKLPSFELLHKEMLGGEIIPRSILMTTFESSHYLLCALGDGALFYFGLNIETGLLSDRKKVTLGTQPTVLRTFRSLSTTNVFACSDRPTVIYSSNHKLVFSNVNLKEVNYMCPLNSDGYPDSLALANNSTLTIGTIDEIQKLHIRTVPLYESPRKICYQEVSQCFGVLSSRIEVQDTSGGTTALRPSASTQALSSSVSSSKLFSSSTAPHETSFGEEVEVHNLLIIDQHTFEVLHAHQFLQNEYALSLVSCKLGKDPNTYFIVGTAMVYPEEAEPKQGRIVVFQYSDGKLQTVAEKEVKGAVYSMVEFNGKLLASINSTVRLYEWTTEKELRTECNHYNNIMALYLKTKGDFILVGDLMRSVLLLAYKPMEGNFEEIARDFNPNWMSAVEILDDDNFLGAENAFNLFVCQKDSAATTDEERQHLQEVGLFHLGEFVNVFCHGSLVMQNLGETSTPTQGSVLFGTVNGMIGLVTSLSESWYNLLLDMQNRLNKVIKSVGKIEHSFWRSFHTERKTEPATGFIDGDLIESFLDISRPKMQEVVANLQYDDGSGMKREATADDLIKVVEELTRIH
Chain of WIZ (Widely interspaced zinc finger) (O95785 whole entry): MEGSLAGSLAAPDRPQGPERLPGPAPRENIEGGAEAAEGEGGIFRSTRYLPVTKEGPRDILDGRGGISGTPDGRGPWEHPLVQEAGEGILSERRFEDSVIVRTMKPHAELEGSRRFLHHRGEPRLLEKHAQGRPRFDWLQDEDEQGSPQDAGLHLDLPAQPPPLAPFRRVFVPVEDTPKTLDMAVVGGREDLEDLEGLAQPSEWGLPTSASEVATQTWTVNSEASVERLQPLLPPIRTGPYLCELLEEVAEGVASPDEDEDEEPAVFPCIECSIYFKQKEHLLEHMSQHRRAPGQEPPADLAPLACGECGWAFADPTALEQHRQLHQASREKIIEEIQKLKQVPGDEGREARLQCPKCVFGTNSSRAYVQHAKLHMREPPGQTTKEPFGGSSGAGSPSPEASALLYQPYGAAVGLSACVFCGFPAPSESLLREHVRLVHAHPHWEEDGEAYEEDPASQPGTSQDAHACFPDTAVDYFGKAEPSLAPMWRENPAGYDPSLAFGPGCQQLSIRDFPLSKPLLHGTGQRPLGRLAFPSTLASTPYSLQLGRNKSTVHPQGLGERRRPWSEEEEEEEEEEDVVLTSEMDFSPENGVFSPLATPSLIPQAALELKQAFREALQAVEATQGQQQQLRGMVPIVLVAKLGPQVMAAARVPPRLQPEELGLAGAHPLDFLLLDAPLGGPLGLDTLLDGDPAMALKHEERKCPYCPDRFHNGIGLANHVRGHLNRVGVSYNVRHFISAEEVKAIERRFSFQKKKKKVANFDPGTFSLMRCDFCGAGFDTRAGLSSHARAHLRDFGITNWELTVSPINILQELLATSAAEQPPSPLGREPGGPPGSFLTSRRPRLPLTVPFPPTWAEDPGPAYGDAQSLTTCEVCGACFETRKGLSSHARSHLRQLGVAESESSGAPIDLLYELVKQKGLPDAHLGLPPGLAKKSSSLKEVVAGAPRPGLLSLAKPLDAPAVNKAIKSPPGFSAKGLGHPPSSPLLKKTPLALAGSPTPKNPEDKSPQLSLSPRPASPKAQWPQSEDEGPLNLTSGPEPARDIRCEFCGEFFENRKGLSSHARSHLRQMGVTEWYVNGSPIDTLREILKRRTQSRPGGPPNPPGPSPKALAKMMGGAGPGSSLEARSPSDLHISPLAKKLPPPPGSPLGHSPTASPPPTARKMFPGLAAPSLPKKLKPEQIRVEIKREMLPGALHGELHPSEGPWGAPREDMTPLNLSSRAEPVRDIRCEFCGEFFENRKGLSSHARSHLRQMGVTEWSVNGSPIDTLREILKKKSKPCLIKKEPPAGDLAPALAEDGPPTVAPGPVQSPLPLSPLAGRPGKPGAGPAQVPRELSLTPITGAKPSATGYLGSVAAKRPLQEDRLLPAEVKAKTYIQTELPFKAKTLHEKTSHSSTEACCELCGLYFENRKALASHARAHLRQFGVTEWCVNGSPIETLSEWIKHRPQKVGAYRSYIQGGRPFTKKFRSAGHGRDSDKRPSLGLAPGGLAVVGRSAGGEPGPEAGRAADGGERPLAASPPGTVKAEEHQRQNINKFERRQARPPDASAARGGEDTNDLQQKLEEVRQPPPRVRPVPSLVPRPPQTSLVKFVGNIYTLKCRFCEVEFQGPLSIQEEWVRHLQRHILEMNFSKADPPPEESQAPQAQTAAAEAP
Chain of WIZ (Widely interspaced zinc finger) (Q96SW2 whole entry): as the sequence (Q96SW2 whole entry, the tested form may be a part) above
Chain of WIZ (Widely interspaced zinc finger) (Q16531 whole entry partner): as the sequence (Q16531 whole entry partner, the tested form may be a part) above

For the molecule `Cc1cc(-c2cc3c(cc2Nc2cccc4c2C(=O)N([C@H]2CCC(=O)NC2=O)C4=O)n(C)c(=O)n3C)ccn1` [Compound 41, (S)-4-((1,3-dimethyl-6-(2-methylpyridin-4-yl)-2-oxo-2,3-dihydro-1H-benzo[d]imidazol-5-yl)amino)-2-(2,6-dioxopiperidin-3-yl)isoindoline-1,3-dione], the EC50 in assay [1] is less than 10 nM; in assay [3] it was less than 30 nM. The molecule also yielded an activation at 1 µM in assay [2] of 66 to 100%.
For the molecule `COc1cc(OCCN2CCCCC2)ccc1Nc1cccc2c1C(=O)N(C1CCC(=O)NC1=O)C2=O` (stereo not drawn) [Compound 12, 2-(2,6-dioxopiperidin-3-yl)-4-((2-methoxy-4-(2-(piperidin-1-yl)ethoxy)phenyl)amino)isoindoline-1,3-dione], the EC50 in assay [1] was less than 10 nM. Also, the activation at 1 µM in assay [2] lay in the range of 66 to 100%. In assay [3], the DC50 lay in the range of 30 to 100 nM.
On to `CN(C)C1CCc2ccc(Nc3cccc4c3C(=O)N([C@@]3(C)CCC(=O)NC3=O)C4=O)cc21` (stereo partly drawn) [Compound 31, 4-((3-(dimethylamino)-2,3-dihydro-1H-inden-5-yl)amino)-2-((S)-3-methyl-2,6-dioxopiperidin-3-yl)isoindoline-1,3-dione], for which the DC50 in assay [1] fell in the range of 10 to 100 nM. This molecule yielded an activation at 1 µM in assay [2] of 33 to 66%. Besides, the EC50 in assay [3] is more than 100 nM.
Regarding `Cc1cc(-c2cc3cnn(C)c3cc2Nc2cccc3c2C(=O)N(C2CCC(=O)NC2=O)C3=O)ccn1` (stereo not drawn) [Compound 7, 2-(2,6-dioxopiperidin-3-yl)-4-((1-methyl-5-(2-methylpyridin-4-yl)-1H-indazol-6-yl)amino)isoindoline-1,3-dione], the DC50 is 10 to 100 nM in assay [1] and 30 to 100 nM in assay [3]. Further, the activation at 1 µM in assay [2] is 66 to 100%.
The like results for `Cc1cc(-c2cc3onc(C)c3cc2Nc2cccc3c2C(=O)N(C2CCC(=O)NC2=O)C3=O)ccn1` (stereo not drawn) [Compound 8, 2-(2,6-dioxopiperidin-3-yl)-4-((3-methyl-6-(2-methylpyridin-4-yl)benzo[d]isoxazol-5-yl)amino)isoindoline-1,3-dione] were, in that order, 10 to 100 nM, 30 to 100 nM and 66 to 100%.
In the case of `Cc1cc(-c2cc3c(cnn3[C@@H]3CCOC3)cc2Nc2cccc3c2C(=O)N([C@H]2CCC(=O)NC2=O)C3=O)ccn1` [Compound 44, 2-((S)-2,6-dioxopiperidin-3-yl)-4-((6-(2-methylpyridin-4-yl)-1-((R)-tetrahydrofuran-3-yl)-1H-indazol-5-yl)amino)isoindoline-1,3-dione], the DC50 in assay [1] lay in the range of 10 to 100 nM; in assay [3], 30 to 100 nM. The molecule further showed an activation at 1 µM in assay [2] of 66 to 100%.
Regarding `Cc1cc(-c2cc3c(cc2Nc2cccc4c2C(=O)N(C2CCC(=O)NC2=O)C4=O)N(C)C(=O)CC3)c(F)cn1` (stereo not drawn) [Compound 46, 2-(2,6-dioxopiperidin-3-yl)-4-((6-(5-fluoro-2-methylpyridin-4-yl)-1-methyl-2-oxo-1,2,3,4-tetrahydroquinolin-7-yl)amino)isoindoline-1,3-dione], the EC50 was less than 10 nM in assay [1] and less than 30 nM in assay [3]. Moreover, in assay [2], the activation at 1 µM was in the range of 66 to 100%.
